Reference: patent publication US20030208035A1, “Antifungal and/or antibacterial peptides, preparation methods, compositions containing same and methods of treating mammals and/or plants” (priority 2000, published 2003)
Bridges are numbered along the chain shown (N, C = ends). Where no end group is shown, it is not given here.

Legend:
[1] = test system: C. dubliensis; assay type: cell-based
Protocol: (§1) Candida yeasts (C. albicans, C. glabrata, C. dubliensis, C. tropicalis, C. kefyr, C. krusei and C. parapsilosis—donated by Dr. H. Koenig, Hôpital Civil, Strasbourg), fluconazole-resistant C. albicans (n^o245962, n^o2332, n^o246335 and n^o3552, donated by Drs. J.Meis and J. Mouton, University Hospital, Microbiology Department, Nijmegen, Netherlands), and Cryptoccocus neoformans (donated by Dr. H. Koenig, Hôpital Civil, Strasbourg) were seeded on Sabouraud-Cloramphenicol Agar slant gelose (Biomerieux) and left to incubate for 24 h at 30° C. (Candida sp.) and for 72 h at 37° C. (Cryptoccocus neoformans).
(§2) Some yeast colonies were placed in suspension in liquid Sabouraud medium (Biomerieux) to obtain a final concentration of 0.1 OD at 600 nm corresponding to 2.5.10^6 yeasts/ml.
(§3) The yeast suspension was adjusted to 5.10^3 yeast/ml in Sabouraud medium.
(§4) 100 μl of peptide dilutions (concentration of 50 with 0.097 μg/ml peptide) were deposited in microtitration plates. After adding […] of yeast suspension with 5.10^3 yeast/ml i.e. 500 yeasts, the test plates were incubated 24 h at 30° C. (Candida) under slow shaking or 72 h at 37° C. (Cryptoccocus).
(§5) Determination of minimal inhibiting concentrations (MIC) was made by measuring absorbency at 600 nm using a spectrophotometer-microtitration plate reader. The MIC score was set at a growth inhibition rate of 50%.

[2] = test system: C. glabrata; assay type: cell-based
Protocol: as §1, §2, §3, §4, §5

[3] = test system: C. kefyr; assay type: cell-based
Protocol: as §1, §2, §3, §4, §5

[4] = test system: C. krusei; assay type: cell-based
Protocol: as §1, §2, §3, §4, §5

[5] = test system: C. parapsilosis; assay type: cell-based
Protocol: as §1, §2, §3, §4, §5

[6] = test system: C. tropicalis; assay type: cell-based
Protocol: as §1, §2, §3, §4, §5

[7] = test system: Cryptoccocus neoformans; assay type: cell-based; settings: 72 h
Protocol: as §1, §2, §3, §4, §5

[8] = test system: Alternaria brassicola; assay type: cell-based; settings: 48 h
Protocol: (§6) 100 μl of peptide dilutions (concentration 50 with 0.097 mg/ml peptide) were deposited in microtitration plates.
(§7) After adding 100 μl of frozen spores with 10^4 spores/ml of A. brassicola and N. crassa (donated by Dr. Bullet, IBMC, Strasbourg) the test plates were incubated 48 h at 30° C.
(§8) Determination of minimal inhibiting concentrations (MIC) was made by observing well cover rate. The MIC was set at 50% well covering.

[9] = test system: Neurospora crassa; assay type: cell-based; settings: 48 h
Protocol: as §6, §7, §8

[10] = test system: Scedosporium inflatum (FSSP 7908 strain); experiment: Scedosporium inflatum infected model (invasive scedosporiosis), continuous infusion by osmotic pumps; assay type: in vivo, mice; settings: for 50% mortality, post-infection day: controls day 7
Protocol: Swiss OF1 mice weighing 22 g were infected by intravenous route (i.v.) with a lethal dose of Scedosporium inflatum (FSSP 7908 strain cultured on Malt Agar gelose for 7 days at 37° C.). The infecting dose was 7.10^6 spores per mouse, injected in a volume of 100 μl via the lateral tail vein.
Peptides pEM35 and pEM51 were administered continuously using ALZET 1003D osmotic pumps (flow rate: 0.97 μl/h; volume: 93 μl; infusion time: 4 days) and 1007D pumps (flow rate: 0.47 μl/h; volume: 100 μl; infusion time: 8 and half days) with intraperitoneal insertion
Groups of 8 infected mice were treated either with:
c) with pEM51 delivered i.p. by 1007D pumps at a dose of 30 mg/kg for 8 days, corresponding to a theoretical equilibrium plasma concentration of 0.3 μg/ml;
d) with pEM51 delivered i.p. by 1003D pumps at a dose of 60 mg/kg for 4 days, corresponding to a theoretical equilibrium plasma concentration of 0.6 μg/ml;
e) with pEM35 delivered i.p. by 1003D pumps at a dose of 35 mg/kg for 4 days, corresponding to a theoretical equilibrium plasma concentration of 0.35 μg/ml.
In this model of invasive scedosporiosis, inoculation of a dose of 7.10^6 spores of Scedosporium inflatum was 50% lethal on post-infection day 7. The first death occurred at 5 days and 6 days respectively after infection for the control mice group (infected, non-treated) and the placebo group (infected and with Alzet pumps). 100% mortality was observed on day 11 in the control group and 75% mortality on day 20 for the placebo group. The state of health of the mice deteriorated rapidly on and after post-infection day 3 with a morbidity score for these two groups of 28/40 and 34/40 on day 3 and 6/40 and 7/40 on post-infection day 7. Signs of encephalitis occurred on post-infection day 4.

[11] = Acute toxicity study in mice; assay type: in vivo; settings: for acute toxicity: mice, intravenous, in 0.9% NaCl, injections of 30 mg/kg repeated at 30-minute intervals, 3 times daily for 3 days
Protocol: […] The peptides were solubilised in a 0.9% NaCl solution; the injected volume was 150 μl injected in 45 seconds via the lateral tail vein.

[12] = test system: A. fumigatus; assay type: cell-based; settings: 48 h
Method in brief: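 Broth microdilution in YPG medium; spores harvested from 7-day malt-agar cultures, 1000 spores/well with serial peptide dilutions (50 down to 0.097 μg/ml). Incubated 48 h at 37 °C; MIC read visually as concentration giving 50% well coverage.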

[13] = test system: fluconazole-resistant C. albicans; experiment: microbe, parasite or virus in culture; assay type: cell-based, Candida albicans; settings: fluconazole-resistant
Protocol: as §1, §2, §3, §4, §5

Row | Sequence | MIC [1] | MIC [2] | MIC [3] | MIC [4] | MIC [5] | MIC [6] | MIC [7] | MIC [8] | MIC [9] | acute toxicity [11] | delayed growth (weight) on the day after the injection ([11]; single i.v. dose 200 mg/kg) | delayed growth (weight) on the day after the injection ([11]; single i.v. dose 400 mg/kg) | MIC [12] | further results
1 | DKLIGSCVWGAVNYTSNCNAECKRRGYKGGHCGSFANVNCWCQT (disulfide 7-32, 18-40, 22-42 (inferred)) [pEM31] | 6.25 µg/mL | >25 µg/mL | >25 µg/mL | 3.125 µg/mL | 1.56 µg/mL | 6.25 µg/mL | 12.5 µg/mL | >25 µg/mL | <0.048 µg/mL | – | – | – | – | –
2 | DKLIGSCVWGAVNYTSNCNAECKRRGYKGGHCGSFLNVNCWCET (disulfide 7-32, 18-40, 22-42 (inferred)) [pEM35] | – | >25 µg/mL | >25 µg/mL | 1.56 µg/mL | – | 1.56 µg/mL | 6.25 µg/mL | >25 µg/mL | <0.048 µg/mL | no acute toxicity was observed | approximately 1 g | approximately 1 g | 6.25 µg/mL | delay of onset of the first death ([10]; 35 mg/kg for 4 days i.p. by 1003D pumps): 5 days; delay of 50% mortality relative to control and placebo groups ([10]; 35 mg/kg for 4 days i.p. pumps): 8 days; mice alive on day 20 (out of 8) ([10]; 35 mg/kg for 4 days i.p. pumps): 1 mouse; morbidity score post-infection day 5 ([10]; 35 mg/kg for 4 days i.p. pumps): 28/40; morbidity score post-infection day 15 ([10]; 35 mg/kg for 4 days i.p. pumps): 8/40; 50% mortality, post-infection day ([10]; 35 mg/kg for 4 days i.p. pumps): 15 days
3 | DKLIGSCVWGAVNYTSNCNAECKRRGYKGGHCGSFLNVNCWCQT (disulfide 7-32, 18-40, 22-42 (inferred)) [pEM46] | 3.125 µg/mL | >25 µg/mL | >25 µg/mL | 1.56 µg/mL | 0.78 µg/mL | 3.125 µg/mL | 6.25 µg/mL | 25 µg/mL | 0.195 µg/mL | – | – | – | 3.125 µg/mL | –
4 | DKLIGSCVWGAVNYTSNCRAECKRRGYKGGHCGSFANVNCWCET (disulfide 7-32, 18-40, 22-42 (inferred)) [pEM51] | – | >25 µg/mL | >25 µg/mL | 1.56 µg/mL | – | 3.125 µg/mL | 1.56 µg/mL | >25 µg/mL | 0.195 µg/mL | no acute toxicity was observed | approximately 1 g | approximately 2 g | – | therapeutic efficacy in terms of survival ([10]; 30 mg/kg for 8 days): very good therapeutic efficacy; delay of onset of the first death ([10]; 30 mg/kg for 8 days i.p. by 1007D pumps, 7.10^6 spores i.v., 8 mice): 9 days; mice alive on day 20 (out of 8) ([10]; 30 mg/kg for 8 days i.p. pumps): 5 mice; morbidity score post-infection day 5 until day 14 ([10]; 30 mg/kg for 8 days i.p. pumps): 24/40; morbidity score post-infection day 20 ([10]; 30 mg/kg for 8 days i.p. pumps): 11/40; morbidity score post-infection day 4 ([10]; 30 mg/kg for 8 days i.p. pumps, 40 = all 8 mice healthy): 28/40; delay of onset of the first death ([10]; 60 mg/kg for 4 days i.p. by 1003D pumps): 4 days; delay of 50% mortality in relation to control and placebo groups ([10]; 60 mg/kg for 4 days i.p. pumps): 5 days; mice alive on day 20 (out of 8) ([10]; 60 mg/kg for 4 days i.p. pumps): 3 mice; morbidity score post-infection day 5 ([10]; 60 mg/kg for 4 days i.p. pumps): 30/40; morbidity score post-infection day 14 ([10]; 60 mg/kg for 4 days i.p. pumps): 6/40; 50% mortality, post-infection day ([10]; 60 mg/kg for 4 days i.p. pumps): 12 days; delayed growth (weight) on the day after the injection ([11]; single i.v. dose 300 mg/kg): approximately 1 g; MIC [13]: 1.56 µg/mL
